Like-named read-outs stand apart in the source and are kept apart here.

Results on one compound are retold here after patent US9974860B2, “Aqueous solution formulation and method for manufacturing same” (Akiko ITAI, priority 2013, dated 2018).

The conditions of data set [1]: cited from earlier work.
The nature of data set [2]: Pharmacokinetic study, intravenous administration of aqueous solution of Working Example 1. The data set is classed as in vivo, Sprague-Daweley IGS rats. The note with it: i.v.; for C0 / AUC(0-t): Sprague-Dawley IGS, rat, blood, iv, average of three; for AUC(0-t): read-out: AUC0-24. From the text:
The aqueous solution obtained in Working Example 1 was filtered and sterilized with Millex (registered trademark)-GV (0.22 μm; available from Millipore Japan Corporation/Merck Millipore Corporation) and intravenously administered to female and male Sprague-Daweley IGS rats (6 weeks old) to investigate the pharmacokinetics of Compound (I).
As groups of animals, female and male Sprague-Daweley IGS rats (available from Charles River Laboratories Japan, Inc.) were used. The rats were 6 weeks old. The male rats had body weights of 166 to 189 g, and the female rats had body weights of 123 to 145 g.
The rats were quarantined and acclimated in a SPF (specific pathogen free) laboratory for animal experimentations for seven days, and their states of health were simultaneously observed. Each of the rats was kept in a sterilized stainless cage. In the SPF laboratory for animal experimentations, the temperature was maintained at 20.6 to 22.5° C., and the relative humidity was maintained at 44 to 60%. In the SPF laboratory for animal experimentations, ventilation was provided fifteen times per hour. Regarding illumination in the SPF laboratory for animal experimentations, a bright state and a dark state were switched every 12 hours.
As foods for rats, a standard dry food in stick-shape (whose components were already analyzed) was used. As drinking water, tap water which was confirmed to be within a range of the reference value was used, and the rats were allowed to freely drink it.
The above-mentioned quarantined rats were randomly divided into the following three groups (four female rats and four male rats per group) by weight.
(1) Group 1: the aqueous solution obtained in Working Example 1 was administered in a dose of 1 mL/kg.
(2) Group 2: the aqueous solution obtained in Working Example 1 was administered in a dose of 2 mL/kg.
(3) Group 3: the aqueous solution obtained in Working Example 1 was administered in a dose of 3 mL/kg.
After the quarantined rats fasted overnight (for about 16 hours), the aqueous solution obtained in Working Example 1 was intravenously administered. Blood was collected 0.083 hours, 0.25 hours, 0.5 hours, 1 hour, 4 hours, and 24 hours after the administration, and the concentration of Compound (I) in the blood was measured. The maximum blood concentration, C0 (ng/mL), just after the composition for injection was intravenously administered, and the area under the blood concentration-time curve of Compound (I) over 0 to 24 hours after the administration, AUC0-24 (ng·h/mL), were calculated from the measured concentrations of Compound (I) in the blood at the collection times.

Setting [3] is: female rats, aqueous solution of Working Example 1, dose of Compound (I) 1 mg/kg (Group 1).
Where [4] appears, read: female rats, aqueous solution of Working Example 1, dose of Compound (I) 2 mg/kg (Group 2).
[5] abbreviates: female rats, aqueous solution of Working Example 1, dose of Compound (I) 3 mg/kg (Group 3).
Where [6] appears, read: male rats, aqueous solution of Working Example 1, dose of Compound (I) 1 mg/kg (Group 1).
The mark [7] stands for this setting: male rats, aqueous solution of Working Example 1, dose of Compound (I) 2 mg/kg (Group 2).
Where [8] appears, read: male rats, aqueous solution of Working Example 1, dose of Compound (I) 3 mg/kg (Group 3).

On to `O=C(Nc1cc(C(F)(F)F)cc(C(F)(F)F)c1)c1cc(Cl)ccc1O` [Compound (I), N-[3,5-bis(trifluoromethyl)phenyl]-5-chloro-2-hydroxybenzamide], for which the Water solubility entry in data set [1] is “poor water solubility”. For the same compound, the C0 in data set [2] (setting [3]) is 2150 ng/mL; in data set [2] (setting [4]), 2820 ng/mL; in data set [2] (setting [5]), 5250 ng/mL; in data set [2] (setting [6]), 1380 ng/mL; in data set [2] (setting [7]), 3210 ng/mL; in data set [2] (setting [8]) it was 4850 ng/mL. Also, the AUC(0-t) was found to be 388 ng·h/mL in data set [2] (setting [3]); 540 ng·h/mL in data set [2] (setting [4]); 981 ng·h/mL in data set [2] (setting [5]); 304 ng·h/mL in data set [2] (setting [6]); 620 ng·h/mL in data set [2] (setting [7]); 1260 ng·h/mL in data set [2] (setting [8]). Also, the “Exposure of Compound (I) in vivo” value in data set [2] (rats, aqueous solution of Working Example 1, 1 to 3 mL/kg) is “exposed in a dose-dependent manner and in a sufficient amount”.
